Laboratory results reported in ChEMBL document CHEMBL4043102, “Novel 4-acetamide-2-alkylthio-N-acetanilides resembling nimesulide: Synthesis, cell viability evaluation and in silico studies” (Bioorg Med Chem, 2017).
Active and inactive are the calls of the source. The rule behind the calls is not given here.

Assays:
MCF7 [1] = assay: Antiproliferative activity against human MCF7 cells assessed as cell proliferation at 30 uM after 48 hrs by MTT assay relative to control; type: functional; conditions: MCF7, 48 h, read-out: Activity
MCF7 [2] = assay: Induction of apoptosis in human MCF7 cells assessed as reduction in viable cells at 30 uM after 24 hrs by propidium iodide staining based FACS analysis; type: functional, cell-based
MCF7 [3] = assay: Antiproliferative activity against human MCF7 cells after 48 hrs by MTT assay; type: functional, cell-based; conditions: MCF7, 48 h
[4] = Antiproliferative activity against NHDF assessed as cell proliferation at 30 uM after 48 hrs by MTT assay relative to control; type: cell-based; conditions: human, NHDF cells; read-out: Activity
MCF7 [5] = assay: Induction of morphological changes in human MCF7 cells assessed as cell rounding at 30 uM after 24 hrs by propidium iodide staining-based microscopic analysis; type: functional
LNCaP [6] = assay: Antiproliferative activity against human LNCAP cells after 48 hrs by MTT assay; type: functional, cell-based
LNCaP [7] = assay: Antiproliferative activity against human LNCAP cells assessed as cell proliferation at 30 uM after 48 hrs by MTT assay relative to control; type: functional; conditions: read-out: Activity
MCF7 [8] = assay: Induction of apoptosis in human MCF7 cells assessed as reduction in viable cells at 30 uM after 24 hrs by propidium iodide staining-based microscopic analysis; type: functional, cell-based
MCF7 [9] = assay: Antiproliferative activity against human MCF7 cells assessed as cell proliferation at 1 mM after 48 hrs by MTT assay relative to control; conditions: MCF7, 48 h, read-out: Activity
LNCaP [10] = assay: Antiproliferative activity against human LNCAP cells assessed as cell proliferation at 1 mM after 48 hrs by MTT assay relative to control; conditions: read-out: Activity
[11] = Antiproliferative activity against NHDF assessed as cell proliferation at 1 mM after 48 hrs by MTT assay relative to control; conditions: human, NHDF cells

Row | Structure (SMILES) | growth at 30 µM (MCF7 [1]) | IC50 (MCF7 [3]) | viability at 48 h, 30 µM [4] | growth at 30 µM (LNCaP [7]) | also measured
1 | CCCSc1ccccc1N(CC)C(C)=O | 89.1% |  |  |  | 
2 | CCN(CC)c1ccccc1SC | 97.2% |  |  |  | 
3 | CCCCCCSc1ccccc1N(CC)C(C)=O | 67.7% |  |  |  | 
4 | CC(=O)Nc1ccc(N(CC2CCCCC2)C(C)=O)c(SCC2CCCCC2)c1 | 7.52% | 16.6 µM | 86.2% | 29.7% | Activity (MCF7 [2]): Active; Activity (MCF7 [5]): Active; IC50 (LNCaP [6]): 9.16 µM
5 | CS(=O)(=O)Nc1ccc([N+](=O)[O-])cc1Oc1ccccc1 [NIMESULIDE] | 42.5% | > 100 µM | 89.3% | 73.8% | Activity (MCF7 [2]): Active; IC50 (LNCaP [6]): 26.7 µM; Activity (MCF7 [8]): Active
6 | CCCCCCN(C(C)=O)c1ccccc1SCCC | 47.6% |  |  |  | 
7 | CCSc1ccccc1N(Cc1ccccc1)C(C)=O | 89.4% |  |  |  | 
8 | CC(=O)N(Cc1ccccc1)c1ccccc1SCc1ccccc1 | 79.8% |  |  |  | 
9 | CCCCCCOc1ccccc1N(CC)C(C)=O | 55.5% |  |  |  | 
10 | CCOc1ccccc1N(Cc1ccccc1)C(C)=O | 87.6% |  |  |  | 
11 | CCSc1ccccc1N(CC)C(C)=O | 99.5% |  |  |  | 
12 | OO [HYDROGEN PEROXIDE] |  |  |  |  | growth at 1000 µM (MCF7 [9]): 4.44%; growth at 1000 µM (LNCaP [10]): 2.15%; viability at 48 h, 1000 µM [11]: 15.5%
13 | CCSc1ccccc1N(Cc1ccccc1C)C(C)=O | 77% |  |  |  | 
14 | CC(=O)Nc1ccc(N(Cc2ccc(C)cc2C)C(C)=O)c(SCc2ccc(C)cc2C)c1 | 15.3% | 7.33 µM | 89.9% | 48% | 
15 | CCCOc1ccccc1N(CC)C(C)=O | 92.5% |  |  |  | 
16 | CC(=O)Nc1ccc(N(CC2CCCCC2)C(C)=O)c(SCc2ccc(C)cc2C)c1 | 9.08% | 20.8 µM | 79.7% | 23% | IC50 (LNCaP [6]): 9.71 µM

Row | Structure (SMILES) | growth at 30 µM (MCF7 [1]) | IC50 (MCF7 [3]) | viability at 48 h, 30 µM [4] | growth at 30 µM (LNCaP [7]) | also measured
17 | CCCCCCN(C(C)=O)c1ccccc1OCCC | 51.5% |  |  |  | 
18 | CCCCCCSc1cc(NC(C)=O)ccc1N(CCCCCC)C(C)=O | 36.6% | 24.9 µM | 93.6% | 73.9% | 
19 | CCCCCCN(C(C)=O)c1ccc(NC(C)=O)cc1SCC1CCCCC1 | 35.9% | 20.4 µM | 98.2% | 117% | 
20 | CC(=O)Nc1ccc(N(Cc2ccc(C)cc2C)C(C)=O)c(SCC2CCCCC2)c1 | 13.6% | 25.2 µM | 80.5% | 40.4% | 
21 | CCCCCCSc1cc(NC(C)=O)ccc1N(Cc1ccc(C)cc1C)C(C)=O | 6.86% | 21.6 µM | 80.1% | 19.1% | Activity (MCF7 [2]): Active; Activity (MCF7 [5]): Active; IC50 (LNCaP [6]): 13.9 µM
22 | CCCN(C(C)=O)c1ccccc1SC | 95.3% |  |  |  | 
23 | CCOc1ccccc1N(CC)C(C)=O | 93.5% |  |  |  | 
24 | CCN(C(C)=O)c1ccccc1SCc1ccccc1 | 95.3% |  |  |  | 
25 | CCCCCCN(C(C)=O)c1ccc(NC(C)=O)cc1SCc1ccc(C)cc1C | 11.1% | 20.7 µM | 83% | 88.5% | 
26 | CCCCCCSc1cc([N+](=O)[O-])ccc1N(CCCCCC)C(C)=O | 65.9% |  | 111% | 92.3% | 
27 | O=c1[nH]cc(F)c(=O)[nH]1 [FLUOROURACIL] | 28.3% | 3.18 µM | 86.8% | 58.8% | Activity (MCF7 [2]): Active; IC50 (LNCaP [6]): 5.21 µM; Activity (MCF7 [8]): Active
28 | CCCCCCSc1cc(NC(C)=O)ccc1N(CC1CCCCC1)C(C)=O | 24.2% | 21 µM | 82.8% | 49.8% | 
29 | CC(=O)N(Cc1ccccc1C)c1ccccc1SCc1ccccc1C | 13.7% |  |  |  | 
30 | CCN(C(C)=O)c1ccccc1OCc1ccccc1 | 88.8% |  |  |  | 
31 | CCSc1ccccc1N(CC)CC | 99.7% |  |  |  | 
